Legend:
[1] = tested on: fibroblasts of mammaplasty; test: Collagen synthesis by fibroblasts (Sirius red coloration); format: cell-based, human
Protocol: The fibroblasts of mammaplasty of a person, in passage 14, were seeded on 12-well plates at the rate of 0.5.10^5 cells per well. The cells are placed in culture for 48 hours in the presence of a DMEM culture medium at 10% of fetal calf serum (SVF), in stove (5% (v/v) CO2, 95% (v/v) air) at 37° C.
After rinsing with PBS, they are treated and placed again in culture for 48 hours in the presence of products to be tested and of DMEM without SVF.
The method is based on a specific coloration of collagen by the Sirius red. The cells are directly fixed by the Bouin liquid (1 ml/well) for 1 hour, after exhaustive rinsing with PBS. The fixer is then aspirated and the plates are rinsed with running water by immersion for 15 minutes.
The coloration is carried out under stirring for 1 hour (1 ml/well) and the plates are then rinsed with hydrochloric acid 0.01 N. Then the material is dissolved in 200 μl of sodium hydroxide 0.1N before transferring to the microtiter plates (Nunc). The optical density is measured at 550 nm against sodium hydroxide as a blank.
The counting of the cells is carried out in 4 wells of each plate, and one detaches the cells with tripsin at 0.05%.
One studied the effect of fucose and of the Mixture of oligofucoses-1 (at 10 μg/ml each) in the presence or absence of sodium ascorbate at 500 μg/ml. And then in the presence or absence of retinol (10 μg/ml).

[2] = tested on: fibroblasts of human skin; test: Cellular proliferation of fibroblasts of human skin ([3H]-thymidine incorporation, 72 h); format: cell-based; conditions: for decrease in the cellular proliferation: retinol 20 μg/ml (69.72 μM) alone, vs. reference without retinol
Protocol: The Mixture of oligofucoses-1 as prepared in example 1 is tested in concentrations of 1 μg/ml and 10μg/ml, both alone and in the simultaneous presence of 375 μg/ml of sodium ascorbate and/or 20 μg/ml of retinol.
The fibroblasts of human skin used in this study come from the removal of skin from a person (28th passing). The cells were cultivated on 12-well plates, in a DMEM culture medium with 10% of fetal calf serum (SVF), 1% of antibiotics and of antifungus (PSF), and 1 μCi/ml of [^3H]-timidine (ICN) for 72 hours in the presence of the products to be tested at final concentrations of 1 μg/ml and 10 μg/ml.
After 72 hours of culture in stove (5% (v/v) CO2, 95% (v/v) air) at 37° C. in the presence of the tested products, the cells were washed four times with PBS, then the cellular carpet was detached for 0.05% of tripsin. Three ml of scintillation liquid were then added per sample, then the radioactivity incorporated in the cells is read in a computer with scintillation.
One incubated the cells with 20 μg/ml of retinol (69.72 μM). […] Two concentrations were tested: 1 μg/ml and 10 μg/ml.
One incubated the cells with 375 μg/ml of Na ascorbate (1.875 mM). […] Two concentrations were tested: 1 μg/ml and 10 μg/ml.
The cells were simultaneously incubated with 375 μg/ml of Na ascorbate and 20 μg/ml of retinol.

[3] = tested on: cells; conditions: cited from earlier work

**Q.** For `CC1=C(/C=C/C(C)=C/C=C/C(C)=C/CO)C(C)(C)CCC1` [Retinol, retinol], which “effect on synthesis of collagen” value ([1]; retinol alone (10 μg/ml)) is on record?
**A.** inhibiting effect on the synthesis of collagen

**Q.** And the “decrease in the cellular proliferation” value [2]?
**A.** about 45%

**Q.** What about the “decrease in the cellular proliferation” value ([2]; listed as retinol) of the same compound?
**A.** 42.5%

**Q.** And the “% vs. control (proliferation)” value ([2]; retinol 20 μg/ml alone)?
**A.** −42.5%

**Q.** For `O=C1O[C@H]([C@@H](O)CO)C(O)=C1O` [ascorbate], which “concentration at which cytotoxic effect can be observed” value ([3]; cell detachment, slowed proliferation, cellular death) is on record?
**A.** about 2.5 mM

**Q.** Which “effect on synthesis of collagen” value ([1]; sodium ascorbate 500 μg/ml alone, with respect to the effect of 50 μg/ml) does the source give for `O=C1O[C@H]([C@@H](O)CO)C([O-])=C1O.[Na+]` [Na ascorbate, sodium ascorbate] here?
**A.** activates the synthesis of collagen very little

**Q.** What about the “% vs. control (proliferation)” value ([2]; Na ascorbate 375 μg/ml alone) of the same compound?
**A.** −64.4%

**Q.** With `C[C@H](O)[C@@H](O)[C@@H](O)[C@H](O)C=O` [fucose] as the compound, how does the “effect on synthesis of collagen in the presence of retinol” value ([1]; 10 μg/ml with retinol 10 μg/ml, 48 h) read?
**A.** this inhibition is greatly abolished

**Q.** And the “effect on biosynthesis of collagen in the presence of sodium ascorbate” value ([1]; 10 μg/ml with sodium ascorbate 500 μg/ml, 48 h)?
**A.** stimulation of the biosynthesis of collagen

**Q.** What about the “decrease in the amount of collagen synthesized by the fibroblasts” value ([1]; fucose alone, 48 h, DMEM without SVF) of the same compound?
**A.** about 19%

**Q.** Which “concentration from which cytotoxic effect starts” value [3] does the source give for `O=C1O[C@H]([C@@H](O)CO)C(O)=C1O` [ascorbic acid] here?
**A.** about 0.01 % by weight

Source: US20040136938A1, “Composition of vitamin c and/or vitamin a” (priority 2000, published 2004)
